Series [1] is described as follows: Photoinitiator activity by photo-DSC. The procedure: The activity of the photoinitiators was measured by means of photo-DSC (Differential Scanning Calorimetry) measurements on a DSC-50 device from Shimadzu, wherein the samples were irradiated alternatively with different dental lamps (Astalis 3: halogen lamp, wavelength range 400-500 nm, intensity 530 mW/cm^2; Bluephase C8: LED, wavelength range 430-490 nm, intensity 1100 mW/cm^2; Ivoclar Vivadent AG). The activity is characterized by the time of peak maximum (tmax), the polymerization rate (RP) which corresponds to the peak height, and the double bond conversion (DBC). The respective photoinitiators were dissolved in a resin mixture of D3MA:UDMA:bis-GMA=1:1:1 and then measured in an aluminum crucible by means of DSC. […]

A short description of series [2]: Absorption maximum (UV-VIS). In kind it is physicochemical. The following applies: own acylgermanium photoinitiators.
The conditions of series [3]: known comparison photoinitiators; cited from earlier work.
Where [4] appears, read: Astralis 3 lamp (400-500 nm), 0.022 mmol PI per gram of resin.
Where [5] appears, read: Bluephase C8 lamp (430-490 nm), 0.022 mmol PI per gram of resin.

Each structure is given as a SMILES string. Like-named read-outs stand apart in the source and are kept apart here.

As to `[CH3][Ge]([CH3])([CH3])[C](=O)c1ccccc1` [Mono-AG, benzoyltrimethylgermanium], the DBC is 56% in series [1] (setting [4]), 49% in series [1] (setting [5]), 30% in series [1] (PI concentration 0.0014 mmol/g) and 48% in series [1] (PI concentration 0.0055 mmol/g). The “Rp × 10^−3” value was 51.0 mol/(l × s) in series [1] (setting [4]), 48.3 mol/(l × s) in series [1] (setting [5]), 16.4 mol/(l × s) in series [1] (PI concentration 0.0014 mmol/g) and 36.2 mol/(l × s) in series [1] (PI concentration 0.0055 mmol/g). Besides, the tmax in series [1] (setting [4]) came to 16 s; in series [1] (setting [5]), 16 s; in series [1] (PI concentration 0.0014 mmol/g), 52 s; in series [1] (PI concentration 0.0055 mmol/g), 24 s. The same molecule returned an absorption maximum in series [2] of 411.5 nm.
With `Cc1cc(C)c(C(=O)P(=O)(C(=O)c2c(C)cc(C)cc2C)c2ccccc2)c(C)c1` [Irg 819, bis(2,4,6-trimethylbenzoyl)phenylphosphine oxide, reference compound], the DBC was determined as 59% in series [1] (setting [4]), 45% in series [1] (setting [5]), 42% in series [1] (PI concentration 0.0014 mmol/g) and 48% in series [1] (PI concentration 0.0055 mmol/g). In addition, the “Rp × 10^−3” value in series [1] (setting [4]) is on record as 67.5 mol/(l × s); in series [1] (setting [5]), 43.5 mol/(l × s); in series [1] (PI concentration 0.0014 mmol/g), 30.4 mol/(l × s); in series [1] (PI concentration 0.0055 mmol/g) it was 48.3 mol/(l × s). Also, the tmax turned out to be 11 s in series [1] (setting [4]), 17 s in series [1] (setting [5]), 23 s in series [1] (PI concentration 0.0014 mmol/g) and 14 s in series [1] (PI concentration 0.0055 mmol/g). Moreover, the absorption maximum in series [3] was 397 nm.
Take `CC12CCC(C(=O)C1=O)C2(C)C` (centres unmarked) [camphorquinone]: in series [3], the absorption maximum is 468 nm.
In the case of `C[CH2][Ge]([CH2]C)([C](=O)c1ccccc1)[C](=O)c1ccccc1` [Bis-AG, bisbenzoyldiethylgermanium], in series [1] (15-fold dilution of the initiator), the “reactivity compared with camphorquinone/amine” value was “comparable with camphorquinone/amine”. Further, the DBC in series [1] (setting [4]) was 84%; in series [1] (setting [5]), 72%; in series [1] (PI concentration 0.0014 mmol/g), 56%; in series [1] (PI concentration 0.0055 mmol/g), 66%. For the same molecule, the “Rp × 10^−3” value in series [1] (setting [4]) is 99.2 mol/(l × s); in series [1] (setting [5]), 98.5 mol/(l × s); in series [1] (PI concentration 0.0014 mmol/g), 61.0 mol/(l × s); in series [1] (PI concentration 0.0055 mmol/g), 85.6 mol/(l × s). Further, the tmax in series [1] (setting [4]) came out at 7.8 s; in series [1] (setting [5]), 7.8 s; in series [1] (PI concentration 0.0014 mmol/g), 12 s; in series [1] (PI concentration 0.0055 mmol/g) it was 9 s. In addition, the “curing time compared with campherquinone/amine” value in series [1] (D3MA:UDMA:bis-GMA=1:1:1) is reported as “halved”. In addition, the “polymerization rate (Rp) relative to camphorquinone in combination with an amine accelerator” value in series [1] (same formulation, D3MA:UDMA:bis-GMA=1:1:1) is listed as “almost double”. The absorption maximum in series [2] worked out at 418.5 nm.
As to `O=[C](c1ccccc1)[Ge]1([C](=O)c2ccccc2)[CH2]CCC[CH2]1` [Example 9, 1,1-bisbenzoyl-germinane], the absorption maximum in series [2] came out at 418.1 nm.

These data come from patent US7605190B2, “Polymerizable compositions with acylgermanium compounds” (Ivoclar Vivadent AG, priority 2006, dated 2009).
